Test: Cavity diagnosis testing under dental curing lamp with ImageJ image analysis
Design: species or system human
Description: Extracted teeth are obtained from School of Dentistry, University of Michigan (human subjects exempt) and stored in 1% sodium azide before use. The teeth are painted with an acid resistant varnish leaving a 1 mm 2 enamel window on the buccal surface of the crowns of the teeth. […] At the completion of the demineralization, the teeth are rinsed with distilled H2O before subjected to caries activity test. Residual varnish is removed by washing in acetone.
Teeth are exposed to 20 microliters of sample for three minutes prior to rinsing in DI water. Rinsing is done initially for 10 seconds, and teeth are examined and photographed while illuminated with a standard dental curing lamp. Rinsing is continued for an additional 10 seconds, followed by imaging, and this is repeated for up to 5 minutes to determine “residence times” for each sample to optimize the exposure procedure.
After a 3 minute exposure followed by 20 seconds of rinsing, imaging is performed under the dental curing lamp.
Digital images are taken with a Nikon ABC camera and analyzed using ImageJ image analysis software. In particular, the “mean gray value” measurement tool is used to compare grayscale brightness between the carious lesion and the background tooth as a measurement of contrast. […]

Q: What does the source list for FITC-dextran?
A: retention in carious lesions on rinsing in DI water (controls: rinse times of more than 20 seconds, cationic StNP: up to five minutes): fully washed away; illumination of carious lesions (statistical analysis of percent intensity difference) (versus untreated teeth / background tooth): did not illuminate carious lesions

— patent US12023388B2, “Detection and treatment of caries and microcavities with nanoparticles” (THE REGENTS OF THE UNIVERSITY OF MICHIGAN, priority 2015, dated 2024)
